# Measurements taken from paper PMC7179167 (Molecules, 2020).
# Like-named read-outs stand apart in the source and are kept apart here.
# Legend:
# [1] = test system: normal skin fibroblast cells (BJ-1); experiment: MTT cytotoxicity assay, normal skin fibroblast BJ-1; assay type: cell-based; conditions: Homo sapiens, 48 h, read-out: Growth Inhibition (%) BJ-1
# [2] = test system: HepG-2 (human liver cancer); experiment: MTT cytotoxicity assay, HepG-2; assay type: cell-based; conditions: for inhibition at 100 µg/mL: HepG2, 100 µg/ml, 48 h, read-out: Growth Inhibition (%) HepG-2; for IC50: HepG2, 48 h post-treatment
# [3] = test system: MCF-7 (human breast cancer); experiment: MTT cytotoxicity assay, MCF-7; assay type: cell-based; conditions: for inhibition at 100 µg/mL: MCF7, 100 µg/ml, 48 h, read-out: Growth Inhibition (%) MCF-7; for IC50: MCF7, 48 h post-treatment
# [4] = DPPH free radical scavenging assay; assay type: biochemical; conditions: concentration of 20µg/l, mean ± SD of three experiments
# Protocol: Antioxidant activity of the newly synthesized 13a–i, 14a–i, 11a–c and 12a–c were assessed in terms of hydrogen-donating or radical-scavenging ability via the stable free radical 1,1-diphenyl-2-picrylhydrazyl (DPPH) using ascorbic acid as a reference at a concentration of […].
# The free radical scavenging activity (RSA) was assessed spectrophotometically at 517 nm via decoloration of the solution of the DPPH (1,1-diphenyl-2-picrylhydrazyl) radical according to Brand-Williams et al. 1995 [32]. DPPH solution was prepared by dissolving of 20 mg of DPPH in one liter of dimethylsulphoxide (DMSO). A freshly prepared DPPH solution was used for the assay. Each of the tested compounds 11a–c, 12a–c, 13a–i, 14a–i and 15a,b were dissolved in DMSO (1mg/mL). A volume of […] of a DMSO stock solution of the test compounds was added to 2 mL of freshly prepared DPPH in DMSO solution. The mixtures were shaken in a vortex (2500 rpm) for 1 min and then left to stand for 15, 30, 45 and 60 min in the dark room. The absorbance was measured at 517 nm against blank using UV visible spectrophotometer 2401 PC (Shimadzu, Kyoto, Japan). Lower absorbance of the reaction mixture indicated higher free radical scavenging activity was analyzed from the graph plots of the inhibition percentage against the compound concentration. The experiment was carried out in triplicate and averaged. The scavenging activity was calculated according to the following formula:Scavenging ability (%) = (A517 of control - A517of sample / A 517 of control) ×100(1)
# [5] = test system: HCT-116 (human colon cancer); experiment: MTT cytotoxicity assay, HCT-116; assay type: cell-based; conditions: Homo sapiens; for inhibition at 100 µg/mL: HCT-116, 100 µg/ml, 48 h, read-out: Growth Inhibition (%) HCT-116; for IC50: HCT-116, 48 h, 48 h post-treatment
# C. albicans (ATCC 10231) = experiment: Disk diffusion antimicrobial test, C. albicans; assay type: cell-based, Candida albicans; conditions: Candida albicans, ATCC10231, disk diffusion; yeast; 20 mg per disc (title), concentration 20 µg (footnote)
# Protocol: (§1) The newly synthesized compounds were chosen to be evaluated in vitro towards a variety of pathogenic microorganisms; Gram-positive bacteria: S. aureus (ATCC 6538) and B. subtilis (ATCC 6633); Gram-negative bacteria: P. areuginosa (ATCC 27853) and E. coli (DSMZ 1058); yeast: C. albicans (ATCC 10231) and S. cerevisiae (ATCC 9080) and fungi: A. niger (NRRL A-326) using the disk diffusion method at a single dose of 20 µl. The results are shown in Table 1 as the growth inhibition zone (mm).
# (§2) The antimicrobial activity of target compounds were evaluated to be in vitro against a variety of pathogenic microorganisms, namely Staphylococcus aureus (ATCC 6538), Bacillus subtilis (ATCC 6633) (Gram-positive bacteria), Pseudomonas areuginosa (ATCC 27853), Escherichia coli (DSMZ 1058) (Gram-negative bacteria), Candida albicans (ATCC 10231), Saccharomyces cerevisiae (ATCC 9080) (Yeast) and Aspergillus niger (NRRL A-326) (Fungi) using the disk diffusion method at a single dose of 20 µg. The microorganisms were served and obtained from the Microbial Biotechnology Department, National Research Center, Giza, Egypt. Amphotericin, amoxicillin and ciprofloxacin were used as reference drugs (Oxoid™ Disks). The tested compounds 11a–c, 12a–c, 13a–i, 14a–i and 15a,b were dissolved in dimethylsulphoxide (DMSO) at a concentration of 1 mg/mL. Aliquots of 20 μl were soaked on filter paper discs (6 mm) and dried at room temperature under sterilized conditions. The paper discs were placed on inoculated agar plats and then incubated for 24 h at 37 °C for bacterial strains and after 48–72 h incubation at 30 °C for fungi. Both bacterial and yeast strains were grown on nutrient agar medium (g/l): beef extract, 3; peptone, 10 and agar, 20 at pH of 7.2. The fungal strain was grown on Czapek-Dox medium (g/l): sucrose, 30; NaNO3, 3; MgSO4.7H2O, 0.5l; KCl, 0.5; FeSO4, 0.01; K2HPO4, 1 and agar, 20 at pH of 6.0.
# [6] = test system: S. cerevisiae (ATCC 9080); experiment: Disk diffusion antimicrobial test, S. cerevisiae; assay type: cell-based; conditions: Saccharomyces cerevisiae, ATCC9080, yeast, 20 mg per disc (title), concentration 20 µg (footnote)
# Protocol: as §1, §2
# [7] = 15 min, read-out: Scavenging Activity (%) on DPPH radicals at 15 min
# [8] = 30 min, read-out: Scavenging Activity (%) on DPPH radicals at 30 min
# [9] = 45 min, read-out: Scavenging Activity (%) on DPPH radicals at 45 min
# [10] = 60 min, read-out: Scavenging Activity (%) on DPPH radicals at 60 min
SMILES,melting point,inhibition at 100 µg/mL [1],inhibition at 100 µg/mL [2],IC50 [2],inhibition at 100 µg/mL [3],IC50 [3],"inhibition [4, 7]","inhibition [4, 8]","inhibition [4, 9]","inhibition [4, 10]",inhibition at 100 µg/mL [5],IC50 [5],zone of inhibition at 20 µg/disc (C. albicans (ATCC 10231)),zone of inhibition at 20 µg/disc [6]
"O=C(c1ccccc1)n1cc(C2=NNC3(C2)C(=O)Nc2ccccc23)c2ccccc21 (stereo not shown) [Compound 13d, 5’-(N-Benzoyl-1H-indol-3-yl)-2’,4’-dihydrospiro(indoline-3,3’-pyrazol)-2-one]",307 to 309 °C,7%,82.7%,60.9 µg/mL,96.4%,25.4 µg/mL,19.3 ± 1.24%,31.3 ± 1.81%,25.9 ± 1.24%,39.7 ± 1.99%,94.6%,26.9 µg/mL,,
"CCn1cc(C2=NNC3(C2)C(=O)Nc2ccccc23)c2ccccc21 (stereo not shown) [Compound 13b, 5’-(N-Ethyl-1H-indol-3-yl)-2’,4’-dihydrospiro(indoline-3,3’-pyrazol)-2-one]",143 to 145 °C,10.4%,81.4%,48 µg/mL,95.4%,24 µg/mL,43.5 ± 1.98%,47 ± 1.81%,56.3 ± 1.29%,65.5 ± 1.55%,94.5%,21.3 µg/mL,18 mm,18 mm
"O=C1Nc2ccccc2C12CC(c1c[nH]c3ccccc13)=NN2 (stereo not shown) [Compound 13a, 5’-(1H-Indol-3-yl)-2’,4’-dihydrospiro(indoline-3,3’-pyrazol)-2-one]",318 to 320 °C,11.6%,89.3%,60.6 µg/mL,96.4%,32.4 µg/mL,41.1 ± 1.25%,45.8 ± 1.36%,56.5 ± 1.99%,64.1 ± 2.01%,96.9%,31.3 µg/mL,18 mm,20 mm

# Now from value to molecule, other results behind:
melting point,SMILES,inhibition at 100 µg/mL [1],inhibition at 100 µg/mL [2],IC50 [2],inhibition at 100 µg/mL [3],IC50 [3],"inhibition [4, 7]","inhibition [4, 8]","inhibition [4, 9]","inhibition [4, 10]",inhibition at 100 µg/mL [5],IC50 [5],zone of inhibition at 20 µg/disc (C. albicans (ATCC 10231)),zone of inhibition at 20 µg/disc [6]
197 to 199 °C,"O=C1Nc2ccccc2C12CC(c1cn(S(=O)(=O)c3ccc(Cl)cc3)c3ccccc13)=NN2 (stereo not shown) [Compound 13h, 5’-(N-(4-Chloro-benzensulfonyl)-1H-indol-3-yl)-2’,4’-dihydrospiro(indoline-3,3’-pyrazol)-2-one]",14.1%,79.5%,19.2 µg/mL,93.4%,5.8 µg/mL,15.2 ± 1.98%,16.3 ± 1.96%,20.6 ± 1.48%,35.7 ± 1.91%,91.3%,20.5 µg/mL,,
190 to 192 °C,"O=C1Nc2ccccc2C12CC(c1cn(S(=O)(=O)c3ccc(Br)cc3)c3ccccc13)=NN2 (stereo not shown) [Compound 13g, 5’-(N-(4-Bromo-benzenesulfonyl)-1H-indol-3-yl)-2’,4’-dihydrospiro(indoline-3,3’-pyrazol)-2-one]",13%,81.9%,72.2 µg/mL,91.6%,43 µg/mL,25.9 ± 1.85%,44 ± 1.46%,49.2 ± 1.77%,53.7 ± 1.81%,92.4%,35.3 µg/mL,,
